The assay deals with Protein Kinase C beta 2 (PKCβII) (Homo sapiens (Human), UniProt P05771). In words: PKCβII coupled spectrophotometric kinase assay (PK/LDH, NADH absorbance at 340 nm). In kind it is biochemical. The note with it: apparent Ki, ATP competitive inhibition model (Morrison equation); 0.1 mM ATP, 5 nM PKC, 30° C.; read-out: Ki app. An outline of the steps: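 PK/LDH-coupled ADP detection (NADH loss at 340 nm), 20 min at 30° C, pH 7.4; 5 nM PKCβII, 0.15 mM pseudosubstrate peptide, 0.1 mM ATP, with CaCl2, PS and PMA activators, 7.5% DMSO. Apparent Ki from initial velocities fitted to ATP-competitive Morrison model over 10,000–0.169 nM inhibitor.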

A value given as a limit tells only on which side of the number the result lay.

Sequence of Protein Kinase C beta 2 (PKCβII) (P05771 other isoform, or with tags, fused parts or gaps): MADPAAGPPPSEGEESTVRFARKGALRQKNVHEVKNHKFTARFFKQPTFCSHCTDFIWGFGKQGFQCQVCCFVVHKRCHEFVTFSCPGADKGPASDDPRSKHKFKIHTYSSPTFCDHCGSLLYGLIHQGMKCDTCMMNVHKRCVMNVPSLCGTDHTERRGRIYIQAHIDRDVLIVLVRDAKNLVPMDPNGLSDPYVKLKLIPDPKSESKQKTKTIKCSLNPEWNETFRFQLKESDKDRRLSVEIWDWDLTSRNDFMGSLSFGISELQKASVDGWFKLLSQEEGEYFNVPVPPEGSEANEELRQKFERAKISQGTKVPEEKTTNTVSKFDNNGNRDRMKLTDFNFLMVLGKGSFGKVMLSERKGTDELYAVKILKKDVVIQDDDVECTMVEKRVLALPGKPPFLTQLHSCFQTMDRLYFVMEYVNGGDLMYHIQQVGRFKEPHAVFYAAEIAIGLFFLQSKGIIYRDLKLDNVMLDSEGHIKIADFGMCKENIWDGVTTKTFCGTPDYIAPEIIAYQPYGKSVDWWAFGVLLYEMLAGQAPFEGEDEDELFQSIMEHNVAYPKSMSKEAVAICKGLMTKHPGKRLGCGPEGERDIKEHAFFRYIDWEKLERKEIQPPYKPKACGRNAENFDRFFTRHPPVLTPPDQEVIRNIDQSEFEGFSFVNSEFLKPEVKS

Take `CCc1ncc(F)c(Nc2n[nH]c3c2CN(C(=O)N2C[C@@H](C)N(CC4CCOCC4)C[C@@H]2C)C3(C)C)n1` [Example J10, 5-{[(2S,5R)-2,5-dimethyl-4-(tetrahydro-2H-pyran-4-ylmethyl)piperazin-1-yl]carbonyl}-N-(2-ethyl-5-fluoropyrimidin-4-yl)-6,6-dimethyl-1,4,5,6-tetrahydropyrrolo[3,4-c]pyrazol-3-amine]: the Ki is less than 0.01 µM. With `CC[C@@H]1CN(C(=O)N2Cc3c(Nc4nc(C)ncc4F)n[nH]c3C2(C)C)CCN1C` [Example H5, 5-{[(3R)-3-ethyl-4-methylpiperazin-1-yl]carbonyl}-N-(5-fluoro-2-methylpyrimidin-4-yl)-6,6-dimethyl-1,4,5,6-tetrahydropyrrolo[3,4-c]pyrazol-3-amine], the Ki turned out to be 0.0508 µM. With `CCc1ncc(F)c(Nc2n[nH]c3c2CN(C(=O)N2CC(CCO)N(C)C[C@@H]2C)C3(C)C)n1` (stereo partly drawn) [Example E5, 2-((5S)-4-{[3-[(2-ethyl-5-fluoropyrimidin-4-yl)amino]-6,6-dimethyl-4,6-dihydropyrrolo[3,4-c]pyrazol-5(1H)-yl]carbonyl}-1,5-dimethylpiperazin-2-yl)ethanol] the figure was less than 0.01 µM.

The values are drawn from patent publication US9518060B2, “Substituted pyrrolo[3,4-c]pyrazoles as PKC kinase inhibitors” (PFIZER INC., priority 2007, dated 2016).
